IC50 data for 28 compounds are collected here from patent publication US8901118B2, “Compounds and methods for kinase modulation, and indications therefor” (Plexxikon Inc., priority 2010, dated 2014).

The target of this assay is CYP3A4(BQ) (Homo sapiens, UniProt P08684). Put plainly: CYP3A4(BQ) inhibition. The settings on record: CYP3A4, substrate BQ; read-out: Cyp IC50 3A4(BQ). Type of assay: in vitro ADME. The essentials: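 After 30 min incubation at 37° C, plates were read on a Tecan Safire 2 at 409 ex/460 em, and IC50 values came from signal plotted against compound concentration. Enzyme and substrate were sourced from BD Biosciences. The cofactor mix held 1.3% NADPH Regeneration system Solution A, 1.04% Solution B, 5% acetonitrile and 0.05% DMSO.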
Sequence of CYP3A4(BQ) (P08684 whole entry): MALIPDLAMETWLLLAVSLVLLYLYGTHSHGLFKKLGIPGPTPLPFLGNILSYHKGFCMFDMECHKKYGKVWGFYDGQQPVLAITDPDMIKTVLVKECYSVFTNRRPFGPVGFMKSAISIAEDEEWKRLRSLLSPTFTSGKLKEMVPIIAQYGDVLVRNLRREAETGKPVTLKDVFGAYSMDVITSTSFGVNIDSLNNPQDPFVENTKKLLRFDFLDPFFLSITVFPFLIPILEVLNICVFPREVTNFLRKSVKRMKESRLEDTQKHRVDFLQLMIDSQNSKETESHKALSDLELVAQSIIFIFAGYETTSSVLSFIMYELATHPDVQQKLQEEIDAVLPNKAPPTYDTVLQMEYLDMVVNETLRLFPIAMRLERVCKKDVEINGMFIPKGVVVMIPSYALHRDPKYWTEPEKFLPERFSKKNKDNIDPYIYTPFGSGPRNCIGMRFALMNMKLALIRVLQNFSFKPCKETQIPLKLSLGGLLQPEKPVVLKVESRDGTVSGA

For orientation: IC50 means the point on the concentration scale where inhibition reaches its midpoint. As to `Clc1cnc2[nH]cc(Cc3cnc(NC4CCCCC4)nc3)c2c1` [Compound P-3001, [5-(5-chloro-1H-pyrrolo[2,3-b]pyridin-3-ylmethyl)-pyrimidin-2-yl]-cyclohexyl-amine], the IC50 is > 10 µM. The result for `Cc1cnc2[nH]cc(Cc3cnc(Nc4ccc(C(F)(F)F)nc4)nc3)c2c1` [Compound P-3018, [5-(5-Methyl-1H-pyrrolo[2,3-b]pyridin-3-ylmethyl)-pyrimidin-2-yl]-(6-trifluoromethyl-pyridin-3-yl)-amine] reads > 10 µM; that for `COc1ccc(Nc2ccc(C(=O)c3c[nH]c4ncc(C)cc34)c(F)n2)cn1` [Compound P-3040, [2-Fluoro-6-(6-methoxy-pyridin-3-ylamino)-pyridin-3-yl]-(5-methyl-1H-pyrrolo[2,3-b]pyridin-3-yl)-methanone], > 10 µM.

`Cc1cnc2[nH]cc(C(=O)c3ccc(Nc4ccc(C)nc4)nc3F)c2c1` [Compound P-3043, [2-Fluoro-6-(6-methyl-pyridin-3-ylamino)-pyridin-3-yl]-(5-methyl-1H-pyrrolo[2,3-b]pyridin-3-yl)-methanone]: the 50% inhibitory concentration (IC50) is > 10 µM.

For the compound `Cc1ccc(Nc2ccc(C(=O)c3c[nH]c4ncc(Cl)cc34)c(F)n2)cn1` [Compound P-3044, (5-Chloro-1H-pyrrolo[2,3-b]pyridin-3-yl)-[2-fluoro-6-(6-methyl-pyridin-3-ylamino)-pyridin-3-yl]-methanone], the IC50 is > 10 µM. Next, `CCc1ccc(Nc2ccc(Cc3c[nH]c4ncc(C)cc34)c(F)n2)cn1` [Compound P-3048, (6-Ethyl-pyridin-3-yl)-[6-fluoro-5-(5-methyl-1H-pyrrolo[2,3-b]pyridin-3-ylmethyl)-pyridin-2-yl]-amine]: > 10 µM; `CCc1ccc(Nc2ccc(C(=O)c3c[nH]c4ncc(C)cc34)c(F)n2)cn1` [Compound P-3049, [6-(6-Ethyl-pyridin-3-ylamino)-2-fluoro-pyridin-3-yl]-(5-methyl-1H-pyrrolo[2,3-b]pyridin-3-yl)-methanone]: > 10 µM. Next, `Cc1cnc2[nH]cc(Cc3ccc(Nc4ccc(C5CC5)nc4)nc3F)c2c1` [Compound P-3050, (6-Cyclopropyl-pyridin-3-yl)-[6-fluoro-5-(5-methyl-1H-pyrrolo[2,3-b]pyridin-3-ylmethyl)-pyridin-2-yl]-amine]: > 10 µM; `Cc1cnc2[nH]cc(C(=O)c3ccc(Nc4ccc(C5CC5)nc4)nc3F)c2c1` [Compound P-3051, [6-(6-Cyclopropyl-pyridin-3-ylamino)-2-fluoro-pyridin-3-yl]-(5-methyl-1H-pyrrolo[2,3-b]pyridin-3-yl)-methanone]: > 10 µM; `O=C(c1ccc(Nc2ccc(C3CC3)nc2)nc1F)c1c[nH]c2ncccc12` [Compound P-3052, [6-(6-Cyclopropyl-pyridin-3-ylamino)-2-fluoro-pyridin-3-yl]-(1H-pyrrolo[2,3-b]pyridin-3-yl)-methanone]: > 10 µM. Next, `Fc1nc(Nc2ccc(C3CC3)nc2)ccc1Cc1c[nH]c2ncccc12` [Compound P-3053, (6-Cyclopropyl-pyridin-3-yl)-[6-fluoro-5-(1H-pyrrolo[2,3-b]pyridin-3-ylmethyl)-pyridin-2-yl]-amine]: > 10 µM; `COc1ccc(Nc2ccc(Cc3c[nH]c4ncnc(C)c34)c(F)n2)cn1` [Compound P-4002, [6-Fluoro-5-(4-methyl-7H-pyrrolo[2,3-d]pyrimidin-5-ylmethyl)-pyridin-2-yl]-(6-methoxy-pyridin-3-yl)-amine]: > 10 µM; `COc1ncnc2[nH]cc(Cc3ccc(Nc4ccc(Cl)nc4)nc3F)c12` [Compound P-4003, (6-Chloro-pyridin-3-yl)-[6-fluoro-5-(4-methoxy-7H-pyrrolo[2,3-d]pyrimidin-5-ylmethyl)-pyridin-2-yl]-amine]: > 10 µM.

As to `CCOc1ncnc2[nH]cc(Cc3ccc(Nc4ccc(C)nc4)nc3F)c12` [Compound P-4017, [5-(4-Ethoxy-7H-pyrrolo[2,3-d]pyrimidin-5-ylmethyl)-6-fluoro-pyridin-2-yl]-(6-methyl-pyridin-3-yl)-amine], the IC50 was > 10 µM.

For the compound `CCOc1ncnc2[nH]cc(Cc3ccc(Nc4ccc(OC)nc4)nc3F)c12` [Compound P-4018, [5-(4-Ethoxy-7H-pyrrolo[2,3-d]pyrimidin-5-ylmethyl)-6-fluoro-pyridin-2-yl]-(6-methoxy-pyridin-3-yl)-amine], the IC50 was > 10 µM.

Turning to `COCCOc1ncnc2[nH]cc(Cc3ccc(Nc4ccc(OC)nc4)nc3F)c12` [Compound P-4019, {6-Fluoro-5-[4-(2-methoxy-ethoxy)-7H-pyrrolo[2,3-d]pyrimidin-5-ylmethyl]-pyridin-2-yl}-(6-methoxy-pyridin-3-yl)-amine], the IC50 was > 10 µM. Next, `COc1ccc(Nc2ccc(C(=O)c3c[nH]c4ncnc(C5CC5)c34)c(F)n2)cn1` [Compound P-4022, (4-cyclopropyl-7H-pyrrolo[2,3-d]pyrimidin-5-yl)-[2-fluoro-6-(6-methoxy-pyridin-3-ylamino)-pyridin-3-yl]-methanone]: > 10 µM; `CCOc1ccc(Nc2ccc(C(=O)c3c[nH]c4ncnc(OC)c34)c(F)n2)cn1` [Compound P-4024, [6-(6-Ethoxy-pyridin-3-ylamino)-2-fluoro-pyridin-3-yl]-(4-methoxy-7H-pyrrolo[2,3-d]pyrimidin-5-yl)-methanone]: > 10 µM. The result for `CCOc1ncnc2[nH]cc(C(=O)c3ccc(Nc4ccc(OC)nc4)nc3F)c12` [Compound P-4025, (4-Ethoxy-7H-pyrrolo[2,3-d]pyrimidin-5-yl)-[2-fluoro-6-(6-methoxy-pyridin-3-ylamino)-pyridin-3-yl]-methanone] reads > 10 µM; that for `CCc1ccc(Nc2ccc(Cc3c[nH]c4ncnc(C5CC5)c34)c(F)n2)cn1` [Compound P-4028, [5-(4-Cyclopropyl-7H-pyrrolo[2,3-d]pyrimidin-5-ylmethyl)-6-fluoro-pyridin-2-yl]-(6-ethyl-pyridin-3-yl)-amine], > 10 µM; that for `CCc1ccc(Nc2ccc(C(=O)c3c[nH]c4ncnc(C5CC5)c34)c(F)n2)cn1` [Compound P-4029, (4-Cyclopropyl-7H-pyrrolo[2,3-d]pyrimidin-5-yl)-[6-(6-ethyl-pyridin-3-ylamino)-2-fluoro-pyridin-3-yl]-methanone], > 10 µM. Next, `Cc1ccc(Nc2ccc(Cc3c[nH]c4ncnc(C5CC5)c34)c(F)n2)cn1` [Compound P-4030, [5-(4-Cyclopropyl-7H-pyrrolo[2,3-d]pyrimidin-5-ylmethyl)-6-fluoro-pyridin-2-yl]-(6-methyl-pyridin-3-yl)-amine]: > 10 µM; `Cc1ccc(Nc2ccc(C(=O)c3c[nH]c4ncnc(C5CC5)c34)c(F)n2)cn1` [Compound P-4031, (4-Cyclopropyl-7H-pyrrolo[2,3-d]pyrimidin-5-yl)-[2-fluoro-6-(6-methyl-pyridin-3-ylamino)-pyridin-3-yl]-methanone]: > 10 µM. For `CCn1cc(Nc2ccc(Cc3c[nH]c4ncnc(C5CC5)c34)c(F)n2)cn1` [Compound P-4036, [5-(4-Cyclopropyl-7H-pyrrolo[2,3-d]pyrimidin-5-ylmethyl)-6-fluoro-pyridin-2-yl]-(1-ethyl-1H-pyrazol-4-yl)-amine], the IC50 was in the range of 5 to 10 µM. `CCn1cc(Nc2ccc(C(=O)c3c[nH]c4ncnc(C5CC5)c34)c(F)n2)cn1` [Compound P-4037, (4-Cyclopropyl-7H-pyrrolo[2,3-d]pyrimidin-5-yl)-[6-(1-ethyl-1H-pyrazol-4-ylamino)-2-fluoro-pyridin-3-yl]-methanone]: the IC50 lay in the range of 5 to 10 µM. Next, `Fc1nc(NC2CCC(F)(F)CC2)ccc1Cc1c[nH]c2ncnc(NCC(F)(F)F)c12` [Compound P-4128, 5-[[6-[(4,4-difluorocyclohexyl)amino]-2-fluoro-3-pyridyl]methyl]-N-(2,2,2-trifluoroethyl)-7H-pyrrolo[2,3-d]pyrimidin-4-amine]: > 10 µM; `Fc1nc(NC2CCC(F)(F)CC2)ccc1Cc1c[nH]c2ncnc(NC3CC3)c12` [Compound P-4129, N-cyclopropyl-5-[[6-[(4,4-difluorocyclohexyl)amino]-2-fluoro-3-pyridyl]methyl]-7H-pyrrolo[2,3-d]pyrimidin-4-amine]: < 5 µM; `Fc1nc(Nc2ccc(C3CC3)nc2)ccc1Cc1c[nH]c2ncnc(NCC(F)(F)F)c12` [Compound P-4130, 5-[[6-[(6-cyclopropyl-3-pyridyl)amino]-2-fluoro-3-pyridyl]methyl]-N-(2,2,2-trifluoroethyl)-7H-pyrrolo[2,3-d]pyrimidin-4-amine]: > 10 µM.
